Our source for the IC50, EC50 and CC50 values is ChEMBL document CHEMBL1201862, “PubChem BioAssay data set” (2004).

Active and inactive are the calls of the source.

Test [1] concerns the target T1, NADPH oxidase 1 (Homo sapiens, UniProt Q9Y5S8).
T1 sequence (Q9Y5S8 whole entry): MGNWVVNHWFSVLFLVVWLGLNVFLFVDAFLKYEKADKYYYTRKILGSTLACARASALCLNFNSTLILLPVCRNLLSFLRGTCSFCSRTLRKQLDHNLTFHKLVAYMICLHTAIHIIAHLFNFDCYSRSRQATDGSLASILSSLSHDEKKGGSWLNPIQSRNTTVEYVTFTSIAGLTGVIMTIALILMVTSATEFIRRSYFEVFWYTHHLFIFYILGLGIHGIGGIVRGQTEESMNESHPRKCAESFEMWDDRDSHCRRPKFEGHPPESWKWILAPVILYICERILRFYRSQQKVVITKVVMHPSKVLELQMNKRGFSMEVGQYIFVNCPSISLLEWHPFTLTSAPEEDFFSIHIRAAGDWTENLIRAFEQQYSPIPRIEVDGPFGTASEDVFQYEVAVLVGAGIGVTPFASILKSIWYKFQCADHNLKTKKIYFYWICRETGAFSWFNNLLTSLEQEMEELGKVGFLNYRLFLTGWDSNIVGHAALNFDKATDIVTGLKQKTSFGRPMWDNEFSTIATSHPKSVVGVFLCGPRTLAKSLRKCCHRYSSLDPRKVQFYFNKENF
The test is described as follows: Late-stage luminescence-based cell-based dose response assay to identify inhibitors of NADPH oxidase 1 (NOX1): Purchased analogs 2. Type of test: functional.

Test [2] deals with T2, Corticotropin-releasing factor receptor 2/Corticotropin-releasing factor-binding protein (Homo sapiens, UniProt P24387+Q13324).
T2 sequence (Q13324 whole entry): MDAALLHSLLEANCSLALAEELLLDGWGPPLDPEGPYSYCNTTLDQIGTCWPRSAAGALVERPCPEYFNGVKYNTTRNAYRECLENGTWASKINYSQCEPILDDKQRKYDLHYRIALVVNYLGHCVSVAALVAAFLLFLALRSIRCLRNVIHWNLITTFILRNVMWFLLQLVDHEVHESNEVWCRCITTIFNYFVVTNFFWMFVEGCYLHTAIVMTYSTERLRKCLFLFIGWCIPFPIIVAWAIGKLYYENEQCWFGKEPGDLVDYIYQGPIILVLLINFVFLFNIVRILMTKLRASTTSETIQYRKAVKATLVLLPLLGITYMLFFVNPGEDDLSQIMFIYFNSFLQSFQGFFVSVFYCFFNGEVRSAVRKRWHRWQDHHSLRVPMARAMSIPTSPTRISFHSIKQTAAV
T2 sequence (P24387 whole entry): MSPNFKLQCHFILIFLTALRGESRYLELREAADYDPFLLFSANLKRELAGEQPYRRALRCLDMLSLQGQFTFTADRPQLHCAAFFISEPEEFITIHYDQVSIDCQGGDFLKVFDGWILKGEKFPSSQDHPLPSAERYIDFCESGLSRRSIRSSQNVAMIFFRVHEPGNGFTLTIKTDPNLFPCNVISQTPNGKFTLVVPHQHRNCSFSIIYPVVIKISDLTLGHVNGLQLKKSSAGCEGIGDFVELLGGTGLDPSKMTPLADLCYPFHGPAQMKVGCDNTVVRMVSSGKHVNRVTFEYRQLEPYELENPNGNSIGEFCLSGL
The test is described as follows: activators of CRF receptor 2 with binding protein – uHTS hits, confirmation (AID 602473). It counts as functional. Particulars: read-out: EC50_Mean.

The target in test [3] is Voltage-gated inwardly rectifying potassium channel KCNH2 (Homo sapiens, UniProt Q12809). The test is described as follows: hERG protection from proarrhythmic block, potency, dose response, cell-based, thallium flux (AID 2121). It counts as ADME. (In general: The hERG channel carries a current that helps repolarise heart muscle cells.)
The nature of test [4]: M. tuberculosis growth inhibition, HTS (AID 449762). It counts as functional.
The next test is described as follows: cells. It counts as functional.
The target of test [5] is T1, NADPH oxidase 1. The test can be described thus: Late-stage luminescence-based cell-based dose response assay to identify inhibitors of NADPH oxidase 1 (NOX1): Synthesized analogs 2. It counts as functional.
Test [6] in a line: C. albicans growth with fluconazole, confirmation, fluorescence, retest (AID 2467). It counts as functional, cell-based.
The next test has as its system Vero. The test can be described thus: host cell cytotoxicity of antiviral hits, dose response, cytotoxicity control for West Nile virus antiviral project, secondary assay (AID 1650). It counts as functional. Particulars: Chlorocebus sabaeus.
The nature of test [7]: NIH-3T3 fibroblast cytotoxicity, dose response, cytotoxicity control, cell-based, fluorescence, Alamar Blue, secondary assay (AID 2327).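 Further: NIH-3T3 mouse fibroblasts cultured with fluconazole at 8 µg/mL.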 Type of test: functional. For orientation: Alamar Blue is a resazurin reagent that responds to reducing activity.
Another test relates to H4. The test is described as follows: Luminescence Cell-Based Dose Response HTS to Identify Activators of 5'UTR Stem-Loop Driven Prion Protein mRNA Translation in H4 Neuroglioblastoma Cells. [Related pubchem assays: 1829 (Project Summary), 1814 (Primary HTS)]. Conditions: Homo sapiens. Type of test: functional.
Test [8] in a line: Luminescence Cell-Based Dose Response to Identify Activators of Luciferase Translation or Activity in H4-C Neuroglioblastoma Cells. [Related pubchem assays: 1829 (Project Summary), 1814 (Primary HTS)]. Type of test: functional.
A short description of test [9]: Luminescence Cell-Based Dose Response to Identify Activators of 5'UTR Stem-Loop Driven Prion Protein mRNA Translation in H4-C Neuroglioblastoma Cells. [Related pubchem assays: 1829 (Project Summary), 1814 (Primary HTS)]. It counts as functional.
A short description of test [10]: Luminescence Cell-Based Dose Confirmation to Identify Activators of 5'UTR Stem-Loop Driven Alpha-Synuclein mRNA Translation in H4 Neuroglioblastoma Cells. [Related pubchem assays: 1829 (Project Summary), 1814 (Primary HTS)]. Type of test: functional.
Test [11] is described as follows: Luminescence Cell-Based Dose Response HTS to Identify Activators of Luciferase Translation or Activity in H4 […] Cells. [Related pubchem assays: 1829 (Project Summary), 1814 (Primary HTS)]. It counts as functional.
The next test deals with Procathepsin L (Homo sapiens, UniProt P07711). The test can be described thus: cathepsin L inhibitors, dose response, counter-screen for M1/M17 aminopeptidase inhibitor project, biochemical, QFRET, 1536-well (AID 2214). For orientation: Counterscreens check selectivity or assay interference.
A further test deals with T3, Leucine aminopeptidase (Plasmodium falciparum 3D7, UniProt Q8IL11).
T3 sequence (Q8IL11 whole entry): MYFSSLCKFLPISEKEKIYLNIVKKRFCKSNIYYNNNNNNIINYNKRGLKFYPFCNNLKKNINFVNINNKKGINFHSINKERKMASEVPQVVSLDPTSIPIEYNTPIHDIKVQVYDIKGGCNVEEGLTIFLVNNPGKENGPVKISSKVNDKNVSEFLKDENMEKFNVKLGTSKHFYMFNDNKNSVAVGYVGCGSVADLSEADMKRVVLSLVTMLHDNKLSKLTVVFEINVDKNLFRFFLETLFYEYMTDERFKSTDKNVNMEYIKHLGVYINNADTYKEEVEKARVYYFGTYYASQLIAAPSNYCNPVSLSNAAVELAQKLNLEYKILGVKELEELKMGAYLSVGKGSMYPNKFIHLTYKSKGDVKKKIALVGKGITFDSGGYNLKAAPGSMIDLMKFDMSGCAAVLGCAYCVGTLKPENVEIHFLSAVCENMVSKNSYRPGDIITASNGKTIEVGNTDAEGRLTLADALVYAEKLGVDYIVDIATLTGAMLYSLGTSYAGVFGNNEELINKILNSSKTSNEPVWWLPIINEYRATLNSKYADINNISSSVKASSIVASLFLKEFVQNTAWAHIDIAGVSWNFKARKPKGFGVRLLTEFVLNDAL
The test is described as follows: P. falciparum M17LAP inhibitors, primary screen, biochemical, fluorogenic H-Leu-NHMec substrate, 1536-well (AID 1619). Type of test: functional.

The target of a further test is Aspartyl aminopeptidase (Plasmodium falciparum 3D7, UniProt Q8I2J3). The test can be described thus: Counterscreen for inhibitors of M1 and M17 aminopeptidases: QFRET-based biochemical high throughput dose response assay for inhibitors of the Plasmodium falciparum M18 Aspartyl Aminopeptidase (PFM18AAP). [Related PubChem assays: 1619 (Screening assay (M17LAP inhibitors).), 1445 (Screening assay (M1AAP inhibitors).)].
Aspartyl aminopeptidase, sequence (Q8I2J3 whole entry): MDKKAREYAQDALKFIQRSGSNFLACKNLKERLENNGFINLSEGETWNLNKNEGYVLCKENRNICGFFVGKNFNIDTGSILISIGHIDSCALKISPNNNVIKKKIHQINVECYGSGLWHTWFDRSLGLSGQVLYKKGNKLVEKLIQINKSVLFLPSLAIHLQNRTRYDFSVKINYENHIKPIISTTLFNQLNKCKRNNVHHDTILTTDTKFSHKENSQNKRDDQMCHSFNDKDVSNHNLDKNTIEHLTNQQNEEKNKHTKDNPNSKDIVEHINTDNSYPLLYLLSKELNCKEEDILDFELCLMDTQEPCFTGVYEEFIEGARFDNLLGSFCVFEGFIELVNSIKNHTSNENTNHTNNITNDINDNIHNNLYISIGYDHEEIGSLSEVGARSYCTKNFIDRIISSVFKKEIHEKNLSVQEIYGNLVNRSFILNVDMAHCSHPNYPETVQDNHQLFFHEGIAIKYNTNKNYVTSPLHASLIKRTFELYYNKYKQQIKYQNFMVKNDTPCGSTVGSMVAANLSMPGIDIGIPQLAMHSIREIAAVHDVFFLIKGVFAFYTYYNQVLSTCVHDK

Voltage-gated inwardly rectifying potassium channel KCNH2, sequence (Q12809 whole entry): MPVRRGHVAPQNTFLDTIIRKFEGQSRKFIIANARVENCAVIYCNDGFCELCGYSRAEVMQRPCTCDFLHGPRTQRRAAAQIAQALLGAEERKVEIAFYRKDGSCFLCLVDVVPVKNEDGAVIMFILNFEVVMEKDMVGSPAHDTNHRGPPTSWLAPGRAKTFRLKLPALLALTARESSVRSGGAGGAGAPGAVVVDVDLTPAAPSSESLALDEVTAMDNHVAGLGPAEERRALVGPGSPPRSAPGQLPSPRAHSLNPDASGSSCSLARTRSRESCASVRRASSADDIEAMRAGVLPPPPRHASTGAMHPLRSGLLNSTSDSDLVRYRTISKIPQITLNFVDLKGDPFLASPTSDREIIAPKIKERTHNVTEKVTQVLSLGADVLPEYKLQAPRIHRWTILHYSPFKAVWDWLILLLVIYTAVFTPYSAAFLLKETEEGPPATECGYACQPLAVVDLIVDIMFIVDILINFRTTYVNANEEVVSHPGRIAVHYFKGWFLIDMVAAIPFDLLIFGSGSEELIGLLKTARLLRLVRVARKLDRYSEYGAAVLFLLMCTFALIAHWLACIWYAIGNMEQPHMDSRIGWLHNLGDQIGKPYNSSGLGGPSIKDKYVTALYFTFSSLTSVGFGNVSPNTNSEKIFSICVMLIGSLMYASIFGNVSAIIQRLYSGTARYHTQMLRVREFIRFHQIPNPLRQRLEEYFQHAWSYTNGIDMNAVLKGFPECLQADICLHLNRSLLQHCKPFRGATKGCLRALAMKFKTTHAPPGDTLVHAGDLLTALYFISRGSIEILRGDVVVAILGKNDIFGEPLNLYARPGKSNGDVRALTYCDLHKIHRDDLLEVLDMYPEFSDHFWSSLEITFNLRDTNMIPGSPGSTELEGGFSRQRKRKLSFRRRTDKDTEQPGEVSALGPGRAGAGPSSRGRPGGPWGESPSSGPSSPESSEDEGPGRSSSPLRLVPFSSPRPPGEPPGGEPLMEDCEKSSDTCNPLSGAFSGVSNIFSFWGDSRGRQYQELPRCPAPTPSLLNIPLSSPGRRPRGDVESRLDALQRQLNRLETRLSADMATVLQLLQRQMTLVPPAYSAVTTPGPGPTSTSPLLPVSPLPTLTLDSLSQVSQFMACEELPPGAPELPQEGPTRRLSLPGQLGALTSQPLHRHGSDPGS
Procathepsin L, sequence (P07711 whole entry): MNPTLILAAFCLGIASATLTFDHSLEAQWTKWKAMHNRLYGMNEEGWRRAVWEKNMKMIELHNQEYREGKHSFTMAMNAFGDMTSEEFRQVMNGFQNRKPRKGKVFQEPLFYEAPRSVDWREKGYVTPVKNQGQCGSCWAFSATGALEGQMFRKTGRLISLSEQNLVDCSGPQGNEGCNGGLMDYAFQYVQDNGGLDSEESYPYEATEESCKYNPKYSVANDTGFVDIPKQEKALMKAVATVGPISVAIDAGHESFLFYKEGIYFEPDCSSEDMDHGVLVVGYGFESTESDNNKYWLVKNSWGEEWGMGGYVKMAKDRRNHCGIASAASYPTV

Broadly, the IC50 is the point on the concentration scale where inhibition reaches its midpoint. With `Cc1cc(Cl)ccc1NC(=S)NNC(=S)Nc1ccc(Cl)cc1C`, the IC50 at NADPH oxidase 1 [1] was 3.51 µM (active).
For the molecule `CCOc1ccc2nc(/N=C/c3nc(-c4ccccc4)oc3O)sc2c1`, the values for the EC50 in [2] and in test [3] were 14.6 µM (active) and 1.69 µM (active), respectively. Besides, the values for the IC50 (in test [4]; in the test “cells”) were > 100 µM (active) and 3.76 µM (active), respectively.
As to `O=C(c1ccccc1)c1ccccc1N1c2ccccc2Sc2ccccc21`, the IC50 against NADPH oxidase 1 [5] is listed as > 50 µM (not active).
In general, CC50 refers to the concentration giving 50% cytotoxicity. In the case of `Nc1nsc2ccccc12`, the EC50 in [6] was 3.19 µM (active); in [7], 24.5 µM (inconclusive). In addition, the CC50 in the test on Vero was 41.7 µM (active).
In the case of `S=C(c1ccc(-c2ccc(Br)cc2)o1)N1CCOCC1`, the EC50 was 18.6 µM (inconclusive) with H4; 0.378 µM (active) in [8]; 0.507 µM (active) in [9]; 0.251 µM (active) in test [10]; < 0.1 µM (active) in [11].
`O=C(O)C1CC=CCC1C(=O)Nc1cccc(Cl)c1` (configuration not stated): the concentration for half-maximal inhibition (IC50) is > 59.6 µM (not active) against Procathepsin L, 6.23 µM (active) on Leucine aminopeptidase and > 73.5 µM (not active) against Aspartyl aminopeptidase.
